Converted amounts (≈) assume the structure as drawn.
How the values were obtained:
[1] = molecular target: T1, Serine/threonine-protein kinase PknB (Mycobacterium tuberculosis, UniProt P9WI81); assay: Inhibition of Mycobacterium tuberculosis recombinant PknB (1 to 331 residues) expressed in Escherichia coli BL21-Rosetta cells using GarA and ATP as substrate preincubated with enzyme for 10 mins followed by substrate addition and measured after 1 hr by ATP-competitive biochemical assay
T1 sequence (P9WI81 whole entry): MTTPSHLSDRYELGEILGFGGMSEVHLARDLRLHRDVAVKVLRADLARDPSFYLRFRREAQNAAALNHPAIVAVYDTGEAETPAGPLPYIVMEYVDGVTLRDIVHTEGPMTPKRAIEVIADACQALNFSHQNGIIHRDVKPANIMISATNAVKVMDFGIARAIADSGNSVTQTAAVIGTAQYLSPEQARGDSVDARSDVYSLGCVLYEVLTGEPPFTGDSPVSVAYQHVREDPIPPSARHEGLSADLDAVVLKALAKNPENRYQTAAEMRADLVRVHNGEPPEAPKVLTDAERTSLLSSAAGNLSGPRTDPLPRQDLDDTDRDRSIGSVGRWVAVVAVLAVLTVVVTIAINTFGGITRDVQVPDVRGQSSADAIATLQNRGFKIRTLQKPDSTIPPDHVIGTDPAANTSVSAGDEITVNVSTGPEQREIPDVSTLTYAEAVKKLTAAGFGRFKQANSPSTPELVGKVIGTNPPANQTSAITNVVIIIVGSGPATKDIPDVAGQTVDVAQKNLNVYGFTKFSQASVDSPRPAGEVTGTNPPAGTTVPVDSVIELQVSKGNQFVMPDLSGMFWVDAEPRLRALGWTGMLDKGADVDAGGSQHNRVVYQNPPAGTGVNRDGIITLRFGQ

[2] = molecular target: T1, Serine/threonine-protein kinase PknB; assay: Binding affinity to Mycobacterium tuberculosis recombinant N-terminal His-tagged PknB (1 to 331 residues) expressed in Escherichia coli DH5alpha cells by microscale thermophoresis analysis
[3] = molecular target: Cyclin-dependent kinase 2/cyclin A (Homo sapiens, UniProt P24941); assay: Inhibition of human Cdk2/Cyclin A using Myelin basic protein as substrate by ATP competitive assay; assay type: toxicity
[4] = tested on: Mycobacterium tuberculosis; assay: Antimycobacterial activity against Mycobacterium tuberculosis H37Ra ATCC 25177 assessed as inhibition of bacterial growth incubated for 12 days by Alamar Blue based fluorescence analysis; assay type: functional; settings: H37Ra ATCC 25177, 288 h, time 12 day
[5] = Lipophilicity, logD of the compound in octanol and phosphate buffer at pH 7.4 at 66.7 uM by LC-MS/MS analysis; assay type: physicochemical; settings: octanol/water, pH 7.4, 66.7 µM
[6] = tested on: THP-1; assay: Cytotoxicity against human THP-1 cells assessed as reduction in cell viability incubated for 72 hrs by CellTiter-Glo luminescent assay; assay type: toxicity, cell-based; settings: thp-1, 72 h
[7] = Toxicity against Zebrafish embryo assessed as embryo survival at 5 uM incubated for 5 days and measured daily; set-up: species or system Danio rerio; settings: zebrafish embryos, time 5 day
[8] = molecular target: T1, Serine/threonine-protein kinase PknB; assay: Binding affinity to Mycobacterium tuberculosis partial length PknB (M1 to G279 residues) expressed in mammalian expression system by KdELECT kinase assay
[9] = molecular target: CDK4/Cyclin D3 (Homo sapiens, UniProt P11802); assay: Binding affinity to human full length CDK4 (M1 to E303 residues) expressed in mammalian expression system/CyclinD3 by KdELECT kinase assay; assay type: toxicity
[10] = molecular target: Glycogen synthase kinase-3 beta (Homo sapiens, UniProt P49841); assay: Binding affinity to human full length GSK-3 beta (M1 to T433 residues) expressed in mammalian expression system by KdELECT kinase assay; assay type: toxicity
[11] = molecular target: Serine/threonine-protein kinase mTOR (Homo sapiens, UniProt P42345); assay: Binding affinity to human partial length mTOR (L1382 to W2549 residues) expressed in mammalian expression system by KdELECT kinase assay; assay type: toxicity
[12] = molecular target: Serine/threonine-protein kinase pim-1 (Homo sapiens, UniProt P11309); assay: Binding affinity to human partial length Pim1 (A15 to K313 residues ) expressed in bacterial expression system by KdELECT kinase assay; assay type: toxicity
[13] = Selectivity ratio of Kd for human full length CDK4 (M1 to E303 residues) expressed in mammalian expression system/CyclinD3 to Kd for Mycobacterium tuberculosis partial length PknB (M1 to G279 residues) expressed in mammalian expression system
[14] = Selectivity ratio of Kd for human full length GSK-3 beta (M1 to T433 residues) expressed in mammalian expression system to Kd for Mycobacterium tuberculosis partial length PknB (M1 to G279 residues) expressed in mammalian expression system
[15] = Selectivity ratio of Kd for human partial length mTOR (L1382 to W2549 residues) expressed in mammalian expression system to Kd for Mycobacterium tuberculosis partial length PknB (M1 to G279 residues) expressed in mammalian expression system
[16] = Selectivity ratio of Kd for human partial length Pim1 (A15 to K313 residues ) expressed in bacterial expression system to Kd for Mycobacterium tuberculosis partial length PknB (M1 to G279 residues) expressed in mammalian expression system

Row | Structure (SMILES) | IC50 [1] | Ki [1] | Kd [2] | IC50 [3] | MIC [4] | logD [5] | CC50 [6] | survival at 120 h, 5 µM [7] | Kd [8] | Kd [9] | Kd [10] | Kd [11] | Kd [12] | Selectivity ratio [13] | Selectivity ratio [14] | Selectivity ratio [15] | Selectivity ratio [16]
1 | COc1cccc(-c2ccnc(Nc3ccc(N4CCN(C)CC4)c(C(F)(F)F)c3)n2)c1 | 6.6 µM | 1.9 µM | 0.66 µM | 10 µM | – | – | – | – | – | – | – | – | – | – | – | – | –
2 | CN1CCN(c2ccc(Nc3nccc(-c4ccc5ccccc5c4)n3)cc2C(F)(F)F)CC1 | 3.4 µM | 0.97 µM | 0.43 µM | > 40 µM | 6 µM (≈ 2.78 µg/mL) | > 5.7 | 3.04 µM | 100% | – | – | – | – | – | – | – | – | –
3 | CN1CCN(c2ccc(Nc3nccc(-c4cccc(C#N)c4)n3)cc2C(F)(F)F)CC1 | 2.5 µM | 0.7 µM | 0.073 µM | > 40 µM | – | – | – | – | – | – | – | – | – | – | – | – | –
4 | CN1CCN(c2ccc(Nc3nccc(-c4cccc(F)c4)n3)cc2C(F)(F)F)CC1 | 6.1 µM | 1.8 µM | 0.71 µM | 24 µM | – | – | – | – | – | – | – | – | – | – | – | – | –
5 | Cc1ccc(-c2ccnc(Nc3ccc(N4CCN(C)CC4)c(C(F)(F)F)c3)n2)cc1 | 1.6 µM | 0.44 µM | 0.03 µM | > 40 µM | 12 µM (≈ 5.13 µg/mL) | > 5.85 | 4.94 µM | 0% | – | – | – | – | – | – | – | – | –
6 | CN1CCN(c2ccc(Nc3nccc(-c4ccc(F)cc4)n3)cc2C(F)(F)F)CC1 | > 40 µM | > 12 µM | 3 µM | 12 µM | – | – | – | – | – | – | – | – | – | – | – | – | –
7 | CN1CCN(c2ccc(Nc3nccc(-c4ccc([N+](=O)[O-])cc4)n3)cc2C(F)(F)F)CC1 | 3.8 µM | 1.1 µM | 0.41 µM | 0.18 µM | – | – | – | – | – | – | – | – | – | – | – | – | –
8 | CN1CCN(c2ccc(Nc3nccc(-c4cccc([N+](=O)[O-])c4)n3)cc2C(F)(F)F)CC1 | 1.2 µM | 0.32 µM | 0.034 µM | > 40 µM | 19 µM (≈ 8.71 µg/mL) | 4.5 | 3.89 µM | 0% | 0.019 µM | 0.91 µM | 3.8 µM | 5.8 µM | 2.2 µM | 48 | > 100 | > 100 | > 100
9 | CN1CCN(c2ccc(Nc3nccc(-c4cccc(Cl)c4)n3)cc2C(F)(F)F)CC1 | 4.3 µM | 1.2 µM | 0.34 µM | > 40 µM | 12 µM (≈ 5.37 µg/mL) | > 6 | 5.28 µM | 57% | 0.18 µM | 3 µM | 9.3 µM | > 10 µM | > 10 µM | – | – | – | –
10 | CN1CCN(c2ccc(Nc3nccc(-c4ccc(Cl)cc4)n3)cc2C(F)(F)F)CC1 | 8.1 µM | 2.4 µM | 2.2 µM | > 40 µM | – | – | – | – | – | – | – | – | – | – | – | – | –
11 | CN1CCN(c2ccc(Nc3nccc(-c4ccnc(Cl)c4)n3)cc2C(F)(F)F)CC1 | 1.1 µM | 0.29 µM | 0.048 µM | 7.2 µM | 25 µM (≈ 11.2 µg/mL) | 4.3 | 1.14 µM | 89% | 0.047 µM | 0.44 µM | 2.6 µM | 0.69 µM | 2.2 µM | – | – | – | –
12 | CN1CCN(c2ccc(Nc3nccc(-c4ccnc(NCc5ccccc5)c4)n3)cc2C(F)(F)F)CC1 | 7.9 µM | 2.3 µM | 2.1 µM | 7.3 µM | – | – | – | – | – | – | – | – | – | – | – | – | –
13 | CNc1cc(-c2ccnc(Nc3ccc(N4CCN(C)CC4)c(C(F)(F)F)c3)n2)ccn1 | 9.4 µM | 2.7 µM | 0.92 µM | 39 µM | – | – | – | – | – | – | – | – | – | – | – | – | –
14 | CN1CCN(c2ccc(Nc3nccc(-c4cccnc4)n3)cc2C(F)(F)F)CC1 | 1.7 µM | 0.47 µM | 0.061 µM | 9.3 µM | 100 µM (≈ 41.4 µg/mL) | 3.53 | 1.06 µM | 56% | – | – | – | – | – | – | – | – | –
15 | CN1CCN(c2ccc(Nc3nccc(-c4ccccc4)n3)cc2C(F)(F)F)CC1 | 4.6 µM | 1.3 µM | 1.2 µM | > 40 µM | 25 µM (≈ 10.3 µg/mL) | 4.8 | 4.1 µM | 96% | 0.43 µM | 1.2 µM | 2.8 µM | > 10 µM | 5.2 µM | – | – | – | –
16 | CN1CCN(c2ccc(Nc3nccc(-c4ccc(C#N)cc4)n3)cc2C(F)(F)F)CC1 | 5.1 µM | 1.5 µM | 0.7 µM | 13 µM | – | – | – | – | – | – | – | – | – | – | – | – | –
